The subject of one experiment is Staphylococcus aureus. Briefly: Antimicrobial activity against Staphylococcus aureus. The format is functional.
Another experiment relates to Pseudomonas aeruginosa. The experiment in a line: Antimicrobial activity against Pseudomonas aeruginosa. Type of experiment: functional.
A further experiment has as its system DNA. The experiment in a line: Binding affinity to calf thymus DNA. The format is nucleic-acid assay. Conditions: Bos taurus.
The next experiment concerns Escherichia coli. Briefly: Antimicrobial activity against Escherichia coli. Type of experiment: functional.

One compound from ChEMBL document CHEMBL1155091, “Structure, antimicrobial activity and DNA-binding properties of the cobalt(II)-sparfloxacin complex” (2008) can be followed below.

Each structure is given as a SMILES string. ≈ marks a conversion by molar mass, not a printed value.

Turning to `C[C@@H]1CN(c2c(F)c(N)c3c(=O)c(C(=O)O)cn(C4CC4)c3c2F)C[C@H](C)N1` [SPARFLOXACIN], the minimum inhibitory concentration (MIC) in the experiment on Staphylococcus aureus turned out to be 0.5 µg/mL (≈ 1.27 µM); against Pseudomonas aeruginosa, 0.25 µg/mL (≈ 0.637 µM); in the experiment on Escherichia coli, 8 µg/mL (≈ 20.4 µM). The compound further registered a Kb in the experiment on DNA of 17100 M⁻¹.

One may read the MIC as the lowest concentration that inhibits growth of the organism.
